# Read-outs that look alike come from different tables or passages of the source.
# Assays:
# [1] = at respective timing
# Experimental: Experiment Method: 15 SD male rats were drawn to be randomly assigned into 3 groups, 5 rats in each group, and peramivir sodium chloride injection (Lot No.: 3139262, Guangzhou Nanxin Pharmaceutical Co., Ltd.) was administered via intravenous injection at a dose of 10 mg/kg. 0.20 ml blood was collected from orbital venous plexus at 5 min, 1 h, and 3 h after dosing to the rats, respectively; and then the rats were lethally anesthetized to harvest the lung tissues (including trachea). After being anticoagulated by heparin sodium, the whole blood was centrifuged (1000 rpm, 5 min) to harvest the plasma; the lung tissues were rinsed and weighed; the plasma and lung tissues were placed under −20° C. until used for testing.
# The rats were lethally anesthetized at 5 min, 1 h, and 3 h after administration, respectively, with their weights weighed and recorded; then, they were exercised to remove lung tissues (including trachea); the lung tissues were rinsed with saline solution; the residual liquid was sucked dry with filter paper; the lung tissues with the residual liquid were placed in an EP tube, weighed with deduction of the weight of the EP tube the weighed weight was recorded; finally, the lung tissues were placed in a −20° C. refrigerator for storage. […]
# Peramivir standard solutions with concentrations of 0.5, 1, 5, 10, 50, 100, 200 μg/mL, respectively, were formulated using 1 mg/mL mother solution according to the gradient dilution method. […] The intra-day lung tissue drug concentrations were calculated according to standard protocol. […]
# [2] = Equilibrium solubility of peramivir in saline solutions of different pH; assay type: physicochemical; set-up: unit not given here; settings: 25° C.
# Experimental: An excess amount of bulk peramivir was drawn and placed into a 25 ml volumetric flask, and 0.7% salt solution was applied to bring the volume to scale; the diluted solution was placed on a shaker and shaken for 24 h (25° C., 75 rpm), and then dilute hydrochloric acid (5%, V/V) was applied to regulate the pH to 4, 4.5, 5.0, and 5.5, respectively; the pH-regulated solutions were placed for another 48 h, and then filtered with a 0.45 μm filter membrane; the filtrates were diluted 250-fold with deionized water; the peramivir contents in the samples were determined by the HPLC method in peramivir standard.
# [3] = cited from earlier work
compound,measurement,setting,value
"CCC(CC)[C@H](NC(C)=O)[C@@H]1[C@H](O)[C@@H](C(=O)O)C[C@H]1NC(=N)N [Peramivir, (−)-(1S, 2S, 3R, 4R)-2-hydroxy-3-[(1S)-1-acetamido-2-ethyl]butyl-4-guanidinocyclopenta-1-carbo xylic acid]","lung tissue concentration, aerosol inhalation relative to intravenous administration",[1]; aerosol 10 mg/kg vs intravenous 10 mg/kg,2.02˜41.58 times
same,"lung tissue concentration, aerosol inhalation relative to intravenous administration",[1]; aerosol low dose 2.5 mg/kg vs intravenous 10 mg/kg,1.07˜4.58 times
same,"lung tissue concentration, aerosol inhalation relative to intravenous administration",[1]; aerosol medium dose 5 mg/kg vs intravenous 10 mg/kg,1.58˜5.31 times
same,Equilibrium Solubility of Peramivir in Saline Solutions,"[2]; pH = 4.0, 0.7% salt solution",33.93 ± 0.51
same,Equilibrium Solubility of Peramivir in Saline Solutions,"[2]; pH = 4.5, 0.7% salt solution",26.53 ± 0.14
same,Equilibrium Solubility of Peramivir in Saline Solutions,"[2]; pH = 5.0, 0.7% salt solution",22.84 ± 0.39
same,Equilibrium Solubility of Peramivir in Saline Solutions,"[2]; pH = 5.5, 0.7% salt solution",22.04 ± 0.21
same,Equilibrium Solubility of Peramivir in Saline Solutions,[2]; pH was not regulated with 0.7% salt solution (pH = 6.86),21.48 ± 0.31
same,stability of peramivir APIs,[3]; 48 h at 100° C.,stable
same,stability of peramivir APIs,[3]; acidic conditions,unstable
same,stability of peramivir APIs,[3]; alkaline and neutral environments,good stability
same,stability of peramivir APIs,[3]; light irradiation for 10 days,good stability

# Source: patent publication US12226384B2, “Peramivir solution type inhalant and preparation method therefor” (priority 2019, dated 2025)
